Assay results from patent publication US4251543A, “2-(p-Prenylphenyl)propionic acid” (priority 1978, dated 1981).

Key:
liver weight = test: Liver weight per 100 g of the test rat; type: in vivo, rat (male Wistar); details: 100 + 200 mg/Kg, p.o., mean ± S.E.
Description: (§1) Anti-inflammatory activity was evaluated by the method of rat paw edema(Winter et al., J. Pharmacol. Exp. Ther., 141, 369(1963)). Six male Wistar strain rats were used in each group and a volume of the each paw was measured three hours after injection of carrageenin.
Immediately after the completion of the test described in Experiment 1, the test compound was orally administered to the test rats in a dose twice the dose administered in Experiment 1, and fasting was continued for 18 hours prior to autopsy and evaluation of gastric lesions and liver weight per 100 g of the test rat. The gastric lesions induced were expressed as incidence(number of rats with gastric lesions/number of the rats) and lesion index(sum of areas damaged). The results are shown in Table 3, wherein the values of lesion index and liver weight are mean ± S.E.

gastric lesions = test: Gastric lesions after oral administration; type: in vivo, rat (male Wistar); details: 100 + 200 mg/Kg, p.o.; for lesion index (sum of areas damaged): mean ± S.E.
Description: Anti-inflammatory activity was evaluated by the method of rat paw edema(Winter et al., J. Pharmacol. Exp. Ther., 141, 369(1963)). Six male Wistar strain rats were used in each group and a volume of the each paw was measured three hours after injection of carrageenin. […] The gastric lesions induced were expressed as incidence(number of rats with gastric lesions/number of the rats) and lesion index(sum of areas damaged). The results are shown in Table 3, wherein the values of lesion index and liver weight are mean ± S.E.

acetic acid writhing = test: Analgesic activity, acetic acid writhing test; type: in vivo, mouse (male ddY); details: p.o.
Text: Male ddY strain mice in groups of ten each were used for the evaluation of analgesic activity by acetic acid writhing test(Koster et al., Federation Proc., 18, 412(1959)).

[1] = tested on: red blood cell and hemoglobin; test: Hematological findings after 10 days administration; type: in vivo, rat (male Wister); details: for hemoglobin / red blood cell: p.o., day one after 10 days administration, mean ± S.E.; for effect on hemoglobin count (in words) / effect on red blood cell count (in words): 50, 100 or 200 mg/Kg orally once a day, 10 days
Description: (§2) The test compound was suspended in 0.4% CMC solution in an appropriate concentration, and was administered orally once a day at the definite dose (50, 100 or 200 mg/Kg) in each 10 male Wister rats. Additional 10 control rats were received an equivalent volume of the vehicle. […] In those tables, the values of body weight, red blood cell and hemoglobin are mean ± S.E.

rat paw edema = test: Anti-inflammatory activity, rat paw edema (carrageenin); type: in vivo, rat (male Wistar); details: p.o., three hours after injection of carrageenin
Description: as §1

[2] = Changes of body weight, repeated oral administration; type: in vivo, rat (male Wister); details: for body weight before treatment: before treatment (baseline); for body weight before treatment / body weight after 5 days / body weight after 10 days: mean ± S.E.; for body weight after 5 days / body weight after 10 days: orally
Description: as §2

liver weight (liver weight) [g]	Structure (SMILES)	lesion index (sum of areas damaged) (gastric lesions) [mm^2]	inhibition (%) (acetic acid writhing; 50 mg/Kg)	inhibition (%) (acetic acid writhing; 100 mg/Kg)	inhibition (%) (acetic acid writhing; 200 mg/Kg)	effect on hemoglobin count (in words) [1]	effect on red blood cell count (in words) [1]	inhibition (%) (rat paw edema; 50 mg/Kg)	inhibition (%) (rat paw edema; 100 mg/Kg)	inhibition (%) (rat paw edema; 200 mg/Kg)	also measured
4.23 ± 0.09	CCCCC1C(=O)N(c2ccccc2)N(c2ccccc2)C1=O [phenylbutazone, reference compound]	4.59 ± 1.35	–	–	–	–	–	–	–	–	–
3.56 ± 0.04	CC(C)=CCc1ccc(C(C)C(=O)O)cc1 (stereo not shown) [TA-060, 2-[p-(3-methyl-2-butenyl)phenyl]propionic acid]	0	37.3	40.0	62.7	no effect	no effect	35.9	46.5	52.1	hemoglobin ([1]; 50 mg/Kg): 15.2 ± 0.1 g/dL; red blood cell ([1]; 50 mg/Kg, *p <0.05): 864.2 ± 20.2 × 10^4 /mm^3; hemoglobin ([1]; 100 mg/Kg, ***p <0.001): 15.1 ± 0.2 g/dL; red blood cell ([1]; 100 mg/Kg, **p <0.01): 860.8 ± 9.5 × 10^4 /mm^3; hemoglobin ([1]; 200 mg/Kg, ***p <0.001): 15.0 ± 0.2 g/dL; red blood cell ([1]; 200 mg/Kg, **p <0.01): 857.9 ± 15.2 × 10^4 /mm^3; gastric lesion incidence (number of rats with gastric lesions/number of the rats) (gastric lesions; fasting 18 hours prior to autopsy): 0/12; body weight before treatment ([2]; 50 mg/Kg/day group): 211.5 ± 3.6 gram; body weight after 5 days ([2]; 50 mg/Kg/day): 224.6 ± 3.6 gram; body weight after 10 days ([2]; 50 mg/Kg/day): 239.7 ± 3.2 gram; body weight before treatment ([2]; 100 mg/Kg/day group): 210.0 ± 2.5 gram; body weight after 5 days ([2]; 100 mg/Kg/day): 226.4 ± 2.8 gram; body weight after 10 days ([2]; 100 mg/Kg/day): 238.5 ± 2.3 gram; body weight before treatment ([2]; 200 mg/Kg/day group): 211.7 ± 3.1 gram; body weight after 10 days ([2]; 200 mg/Kg/day, **p <0.001): 238.3 ± 5.1 gram; body weight after 5 days ([2]; 200 mg/Kg/day, *p <0.01): 221.9 ± 4.6 gram; effect on body weight gain (in words) ([2]; 50, 100 or 200 mg/Kg orally once a day, 10 days): no effect
–	CC(C)Cc1ccc(C(C)C(=O)O)cc1 (stereo not shown) [ibuprofen, reference compound]	–	18.6	37.5	53.8	significant decrease	significant decrease	37.9	49.5	52.9	–
